In patent publication US11304944B2, “MetAP2 inhibitors and methods of treating obesity” (SynDevRx, Inc., priority 2013, dated 2022):
Where two headings read alike, the source gives them in different places.

Assays:
DIO C57Bl6 mice [1] = experiment: In vivo testing DIO C57Bl6 mice: weight changes, food consumption, body composition (Compound 16 vs TNP-470); settings: for Body Weight Day 33: sc; for Total fat as a percentage of BW / B.W. / Epididymal Fat / Inguinal Fat / Liver / Retroperitoneal Fat / Total Fat: Day 33
Description: C57Bl6 male mice (N=6) thirteen weeks old with an average of weight of 34 g were ad libitum fed TD.06414 a high fat diet composed of 60% Kcal from fat (Harlan diet). On study day 1 animals were randomized into groups so that the average weight of each group was 33.9 g. […] Animals were weighed every other day. Food consumption was measured weekly. On day 33 gross pathology was performed to determine body composition.

DIO C57Bl6 mice [2] = settings: for Weight Change from day 1: Day 32; for Average BW: IP-GTT day 24; for Blood Glucose 120 / Blood Glucose 15 min / Blood Glucose 30 min / Blood Glucose 60 min / Blood Glucose 90 min / Blood Glucose Fasting: IP-GTT day 24, ± SEM; for CHOLESTEROL / HDL CHOLESTEROL / HDL/LDL ratio / LDL / TRIGLYCERIDE: blood day 32, ± SEM
Description: C57Bl6 male mice (N=6) fifteen weeks old with an average of weight of 42 g were ad libitum fed TD.06414 a high fat diet composed of 60% Kcal from fat (Harlan diet). […] Animals were weighed every other day. Food consumption was measured weekly. […] Each animal was weighed and a baseline fasted glucose measurement collected. Each animal was given a 1 gram per kilogram dose of dextrose as a 25% solution by intraperitoneal injection.

poly[HPMA-co-MA-GFLG-N-(trans-4-aminocyclohexyl)carbamoylfumagillol] [Compound 16]
Body Weight Day 33 (DIO C57Bl6 mice [1]; 0.5 mg/kg/day, qod): 30.4 g | Total fat as a percentage of BW (DIO C57Bl6 mice [1]; 1 mg/kg qod): 8.2% | Body Weight Day 33 (DIO C57Bl6 mice [1]; 1.5 mg/kg/day, q4d): 27.4 g | B.W. (DIO C57Bl6 mice [1]; 6 mg/kg q4d): 27.4 grams | Epididymal Fat (DIO C57Bl6 mice [1]; 6 mg/kg q4d): 0.78 grams | Inguinal Fat (DIO C57Bl6 mice [1]; 6 mg/kg q4d): 0.53 grams | Liver (DIO C57Bl6 mice [1]; 6 mg/kg q4d): 1.17 grams | Retroperitoneal Fat (DIO C57Bl6 mice [1]; 6 mg/kg q4d): 0.23 grams | Total Fat (DIO C57Bl6 mice [1]; 6 mg/kg q4d): 1.55 grams | Total fat as a percentage of BW (DIO C57Bl6 mice [1]; 6 mg/kg q4d): 5.6% | degree of weight loss compared with TNP-470 (DIO C57Bl6 mice [1]; FIG. 1): superior to TNP-470 in the degree of weight loss | food consumption compared with TNP-470 (DIO C57Bl6 mice [1]; FIG. 2): causes a greater reduction in food consumption than TNP-470 | decrease in weight (DIO C57Bl6 mice [1]; q4d dosing regimen (FIG. 1)): 19% | B.W. (DIO C57Bl6 mice [1]; qod (Cmpd 16 1 mg/kg qod)): 30.4 grams | Epididymal Fat (DIO C57Bl6 mice [1]; qod (Cmpd 16 1 mg/kg qod)): 1.18 grams | Inguinal Fat (DIO C57Bl6 mice [1]; qod (Cmpd 16 1 mg/kg qod)): 0.92 grams | Liver (DIO C57Bl6 mice [1]; qod (Cmpd 16 1 mg/kg qod)): 1.10 grams | Retroperitoneal Fat (DIO C57Bl6 mice [1]; qod (Cmpd 16 1 mg/kg qod)): 0.42 grams | Total Fat (DIO C57Bl6 mice [1]; qod (Cmpd 16 1 mg/kg qod)): 2.52 grams | Group BW ± SEM, Day 32 (DIO C57Bl6 mice [2]; 0.2 mg/kg q4d sc): 46.5 ± 0.65 g | Weekly food consumption Day 1-8 (DIO C57Bl6 mice [2]; 0.2 mg/kg q4d sc): 25.8 g | Weekly food consumption Day 9-15 (DIO C57Bl6 mice [2]; 0.2 mg/kg q4d sc): 22.6 g | Weekly food consumption Day 15-22 (DIO C57Bl6 mice [2]; 0.2 mg/kg q4d sc): 20.3 g | Weekly food consumption Day 22-29 (DIO C57Bl6 mice [2]; 0.2 mg/kg q4d sc): 19.7 g | Weight Change from day 1 (DIO C57Bl6 mice [2]; 0.2 mg/kg q4d sc): +10.5% | Average BW (DIO C57Bl6 mice [2]; 0.2 mg/kg q4d sc): 43.4 g | Blood Glucose 120 (DIO C57Bl6 mice [2]; 0.2 mg/kg q4d sc): 241 ± 16.8 mg/dL | Blood Glucose 15 min (DIO C57Bl6 mice [2]; 0.2 mg/kg q4d sc): 505 ± 33.9 mg/dL | Blood Glucose 30 min (DIO C57Bl6 mice [2]; 0.2 mg/kg q4d sc): 446 ± 20.5 mg/dL | Blood Glucose 60 min (DIO C57Bl6 mice [2]; 0.2 mg/kg q4d sc): 456 ± 25.9 mg/dL | Blood Glucose 90 min (DIO C57Bl6 mice [2]; 0.2 mg/kg q4d sc): 341 ± 15.5 mg/dL | Blood Glucose Fasting (DIO C57Bl6 mice [2]; 0.2 mg/kg q4d sc): 254 ± 5.8 mg/dL | CHOLESTEROL (DIO C57Bl6 mice [2]; 0.2 mg/kg q4d sc): 253 ± 8.4 mg/dL | HDL CHOLESTEROL (DIO C57Bl6 mice [2]; 0.2 mg/kg q4d sc): 117 ± 2.7 mg/dL | HDL/LDL ratio (DIO C57Bl6 mice [2]; 0.2 mg/kg q4d sc): 4.9 ± 0.2 | LDL (DIO C57Bl6 mice [2]; 0.2 mg/kg q4d sc): 24 ± 1.1 mg/dL | TRIGLYCERIDE (DIO C57Bl6 mice [2]; 0.2 mg/kg q4d sc): 158 ± 10.9 mg/dL | Epid. Fat (DIO C57Bl6 mice [2]; 0.2 mg/kg q4d sc, day 32): 2.01 g | Fat % BW (DIO C57Bl6 mice [2]; 0.2 mg/kg q4d sc, day 32): 13.0% | Ing. Fat (DIO C57Bl6 mice [2]; 0.2 mg/kg q4d sc, day 32): 2.54 g | Liver (DIO C57Bl6 mice [2]; 0.2 mg/kg q4d sc, day 32): 2.06 g | RP Fat (DIO C57Bl6 mice [2]; 0.2 mg/kg q4d sc, day 32): 1.48 g | Total Fat (DIO C57Bl6 mice [2]; 0.2 mg/kg q4d sc, day 32): 6.02 g | avg B.W. (DIO C57Bl6 mice [2]; 0.2 mg/kg q4d sc, day 32): 46.50 g | Blood glucose (DIO C57Bl6 mice [2]; 0.2 mg/kg q4d sc, day 32, fasted three hours): 290 mg/dL | Group BW ± SEM, Day 32 (DIO C57Bl6 mice [2]; 0.6 mg/kg q4d sc): 43.3 ± 0.42 g | Weekly food consumption Day 1-8 (DIO C57Bl6 mice [2]; 0.6 mg/kg q4d sc): 19.5 g | Weekly food consumption Day 9-15 (DIO C57Bl6 mice [2]; 0.6 mg/kg q4d sc): 21.5 g | Weekly food consumption Day 15-22 (DIO C57Bl6 mice [2]; 0.6 mg/kg q4d sc): 20.2 g | Weekly food consumption Day 22-29 (DIO C57Bl6 mice [2]; 0.6 mg/kg q4d sc): 18.4 g | Weight Change from day 1 (DIO C57Bl6 mice [2]; 0.6 mg/kg q4d sc): +2.9% | Average BW (DIO C57Bl6 mice [2]; 0.6 mg/kg q4d sc): 40.9 g | Blood Glucose 120 (DIO C57Bl6 mice [2]; 0.6 mg/kg q4d sc): 192 ± 12.9 mg/dL | Blood Glucose 15 min (DIO C57Bl6 mice [2]; 0.6 mg/kg q4d sc): 442 ± 50.0 mg/dL | Blood Glucose 30 min (DIO C57Bl6 mice [2]; 0.6 mg/kg q4d sc): 441 ± 35.54 mg/dL | Blood Glucose 60 min (DIO C57Bl6 mice [2]; 0.6 mg/kg q4d sc): 388 ± 56.7 mg/dL | Blood Glucose 90 min (DIO C57Bl6 mice [2]; 0.6 mg/kg q4d sc): 302 ± 43.3 mg/dL | Blood Glucose Fasting (DIO C57Bl6 mice [2]; 0.6 mg/kg q4d sc): 206 ± 14.9 mg/dL | CHOLESTEROL (DIO C57Bl6 mice [2]; 0.6 mg/kg q4d sc): 210 ± 3.7 mg/dL | HDL CHOLESTEROL (DIO C57Bl6 mice [2]; 0.6 mg/kg q4d sc): 106 ± 1.2 mg/dL | HDL/LDL ratio (DIO C57Bl6 mice [2]; 0.6 mg/kg q4d sc): 5.4 ± 0.1 | LDL (DIO C57Bl6 mice [2]; 0.6 mg/kg q4d sc): 20 ± 0.3 mg/dL | TRIGLYCERIDE (DIO C57Bl6 mice [2]; 0.6 mg/kg q4d sc): 116 ± 3.1 mg/dL
